Patent US8907089B2, “Fused heterocyclic ring derivative and use thereof” (Takeda Pharmaceutical Company Limited, priority 2009, dated 2014)

The compounds below were run on NIH-3T3/Gli reporter cells (Hedgehog signal, Gli reporter luciferase; Smo inhibitory action) (assay: Gli reporter luciferase assay in NIH-3T3/Gli reporter cells stimulated with mouse Shh-N end fragment). Settings: NIH3T3; 1 μM compound; NIH-3T3/Gli reporter cells with mouse Shh-N end fragment culture supernatant, 48 hr; luciferase activity, control without compound as 100; read-out: inhibition rate (%) at 1 μM.
Type: cell-based
Text: Inhibition of the Hedgehog signal transduction system can be measured, for example, by quantifying a decrease in the expression level of a reporter gene connected to the downstream of the Gli binding site based on the fluorescence intensity according to the following Experimental Example 1. Alternatively, it can be measured by quantifying the expression of Gli-1 mRNA in a cell extract by quantitative PCR method and the like. A compound that inhibits Hedgehog signal targets Smo, which can be confirmed, for example, by binding fluorescence-labeled Cyclopamine and a test compound to cells expressing Smo, measuring the fluorescence level of the cell, and comparing the value with that without addition of a test compound to find a decrease.
Gli reporter plasmid was constructed by inserting 8×Gli-binding site and chicken 8-crystalline promoter into the upstream of luc+ of pGL3 (Promega).
prepared in reference to the base sequence described in GenBank accession No.; X02187, and chicken genome DNA (Clontech) as a template. PCR reaction was performed using Pfu Turbo (Stratagene) and following the attached protocol. The obtained 108 bp fragment was digested with restriction enzymes BglII and HindIII, and inserted into BglII-HindIII site of pGL3 to give plasmid pGL3/δ-cry promoter.
As 8×Gli-binding site, a sequence containing eight 9-bp Gli bound consensus sequences (GACCACCCA) described in Yoon et al., J. Biol. Chem., vol. 273, pages 3496-3501 (1998) was prepared from synthetic DNA. That is, two synthetic DNAs,
were heat treated at 95° C. for 2 minutes, and incubated at 37° C. for 1 hr for annealing to give a double stranded DNA of the above-mentioned two synthetic DNAs. The obtained double stranded DNA was digested with restriction enzymes BglII and KpnI, and the obtained DNA fragment was inserted into BglII-KpnI site of pGL3/8-cry promoter to construct plasmid pGL3/8-cry promoter, 8×Gli binding site, i.e., Gli reporter plasmid. 2. Construction of plasmid for expression of mouse Shh-N end Fragment
HEK293 cells were grown in D-MEM medium (Invitrogen) containing 10% fetal bovine serum in a 10 cm dish and pcDNA3.1/mShh-N was introduced into the cells using FuGENE6 (Roche Applied Science). Thereafter, the HEK293 cells were cultured in a carbon dioxide gas incubator at 37° C. for 24 hours, and the medium was exchanged with D-MEM medium (Invitrogen) containing 2% fetal bovine serum. After culturing for 48 hr, a culture supernatant containing recombinant type mouse Shh-N end fragment was obtained by filtration using a filter ([…]).
Using D-MEM (Invitrogen) containing 10% fetal bovine serum, expression plasmid pcDNA3.1 and Gli reporter plasmid (pGL3/8-cry promoter, 8×Gli binding site) produced by the method of Experimental Example 1 were introduced into NIH-3T3 cells grown in a 10 cm dish by the use of FuGENE6 (Roche Applied Science).
After culture for 24 hr, the cells were recovered, suspended in D-MEM medium containing 10% fetal bovine serum and supplemented with Geneticin (Life Technologies Oriental, Inc.) to a final concentration of 500 μg/ml, diluted to 10^4 cells/ml, plated on a 96 well plate, and cultured in a carbon dioxide gas incubator at 37° C. to give Geneticin resistant transformed cell line.
The obtained transformed cell line was cultured in a 96 well plate, mouse Shh-N end fragment obtained in Experimental Example 3 was added, and NIH-3T3/Gli reporter cell, which is a cell line capable of induction of luciferase expression, was selected.
NIH-3T3/Gli reporter cells cultured in D-MEM (Invitrogen) containing 10% fetal bovine serum were plated in a 96 well white plate at 1×10^4 cells/well, and cultured overnight in a carbon dioxide gas incubator at 37° C. The medium was removed, a compound (50 μl) and culture supernatant of mouse Shh-N end fragment-expressing HEK293 (D-MEM medium containing 2% fetal bovine serum, 50 μl) were added, and the cells were cultured for 48 hr in a carbon dioxide gas incubator at 37° C. […]

SMILES | inhibition at 1 µM [%]
CCc1cc2c(c(OCC(F)(F)F)c(C(=O)NC3CCN(C(=O)CO)CC3)n2C)c(=O)n1-c1ccccc1 [Example 1, 6-ethyl-N-[1-(hydroxyacetyl)piperidin-4-yl]-1-methyl-4-oxo-5-phenyl-3-(2,2,2-trifluoroethoxy)-4,5-dihydro-1H-pyrrolo[3,2-c]pyridine-2-carboxamide] | 98
CCOc1c(C(=O)NC2CCN(C(=O)CO)CC2)n(C)c2cc(CC)n(-c3ccccc3)c(=O)c12 [Example 3, 3-ethoxy-6-ethyl-N-[1-(hydroxyacetyl)piperidin-4-yl]-1-methyl-4-oxo-5-phenyl-4,5-dihydro-1H-pyrrolo[3,2-c]pyridine-2-carboxamide] | 97
CCc1cc2c(c(OC(C)C)c(C(=O)NC3CCN(C(=O)CO)CC3)n2C)c(=O)n1-c1ccccc1 [Example 4, 6-ethyl-N-[1-(hydroxyacetyl)piperidin-4-yl]-1-methyl-3-(1-methylethoxy)-4-oxo-5-phenyl-4,5-dihydro-1H-pyrrolo[3,2-c]pyridine-2-carboxamide] | 97
Cc1ccc(-n2c(C)cc3c(c(OCC(F)(F)F)c(C(=O)NC4CCN(C(=O)CO)CC4)n3C)c2=O)cc1 [Example 8, N-[1-(hydroxyacetyl)piperidin-4-yl]-1,6-dimethyl-5-(4-methylphenyl)-4-oxo-3-(2,2,2-trifluoroethoxy)-4,5-dihydro-1H-pyrrolo[3,2-c]pyridine-2-carboxamide] | 97
CCc1cc2c(c(OCC(F)(F)F)c(C(=O)NC3CCN(C(=O)CO)CC3)n2C)c(=O)n1-c1ccc(C(F)(F)F)cc1 [Example 9, 6-ethyl-N-[1-(hydroxyacetyl)piperidin-4-yl]-1-methyl-4-oxo-3-(2,2,2-trifluoroethoxy)-5-[4-(trifluoromethyl)phenyl]-4,5-dihydro-1H-pyrrolo[3,2-c]pyridine-2-carboxamide] | 97
CCOc1c(C(=O)NC2CCN(C(=O)CO)CC2)n(C)c2cc(CC)n(-c3ccc(C(F)(F)F)cc3)c(=O)c12 [Example 10, 3-ethoxy-6-ethyl-N-[1-(hydroxyacetyl)piperidin-4-yl]-1-methyl-4-oxo-5-[4-(trifluoromethyl)phenyl]-4,5-dihydro-1H-pyrrolo[3,2-c]pyridine-2-carboxamide] | 96
CCc1cc2c(c(OC(C)C)c(C(=O)NC3CCN(C(=O)CO)CC3)n2C)c(=O)n1-c1ccc(C(F)(F)F)cc1 [Example 11, 6-ethyl-N-[1-(hydroxyacetyl)piperidin-4-yl]-1-methyl-3-(1-methylethoxy)-4-oxo-5-[4-(trifluoromethyl)phenyl]-4,5-dihydro-1H-pyrrolo[3,2-c]pyridine-2-carboxamide] | 96
CCc1cc2c(c(OCC(F)(F)F)c(C(=O)NC3CCN(C(=O)CO)CC3)n2C)c(=O)n1-c1ccc(OC)cc1 [Example 12, 6-ethyl-N-[1-(hydroxyacetyl)piperidin-4-yl]-5-(4-methoxyphenyl)-1-methyl-4-oxo-3-(2,2,2-trifluoroethoxy)-4,5-dihydro-1H-pyrrolo[3,2-c]pyridine-2-carboxamide] | 97
CCOc1c(C(=O)NC2CCN(C(=O)CO)CC2)n(C)c2cc(CC)n(-c3ccc(OC)cc3)c(=O)c12 [Example 13, 3-ethoxy-6-ethyl-N-[1-(hydroxyacetyl)piperidin-4-yl]-5-(4-methoxyphenyl)-1-methyl-4-oxo-4,5-dihydro-1H-pyrrolo[3,2-c]pyridine-2-carboxamide] | 97
CCc1cc2c(c(OC(C)C)c(C(=O)NC3CCN(C(=O)CO)CC3)n2C)c(=O)n1-c1ccc(OC)cc1 [Example 14, 6-ethyl-N-[1-(hydroxyacetyl)piperidin-4-yl]-5-(4-methoxyphenyl)-1-methyl-3-(1-methylethoxy)-4-oxo-4,5-dihydro-1H-pyrrolo[3,2-c]pyridine-2-carboxamide] | 96
CCc1cc2c(c(OCC(F)(F)F)c(C(=O)NC3CCN(C(=O)CO)CC3)n2C)c(=O)n1-c1cccc(F)c1 [Example 15, 6-ethyl-5-(3-fluorophenyl)-N-[1-(hydroxyacetyl)piperidin-4-yl]-1-methyl-4-oxo-3-(2,2,2-trifluoroethoxy)-4,5-dihydro-1H-pyrrolo[3,2-c]pyridine-2-carboxamide] | 99
CCOc1c(C(=O)NC2CCN(C(=O)CO)CC2)n(C)c2cc(CC)n(-c3cccc(F)c3)c(=O)c12 [Example 16, 3-ethoxy-6-ethyl-5-(3-fluorophenyl)-N-[1-(hydroxyacetyl)piperidin-4-yl]-1-methyl-4-oxo-4,5-dihydro-1H-pyrrolo[3,2-c]pyridine-2-carboxamide] | 96
CCc1cc2c(c(OC(C)C)c(C(=O)NC3CCN(C(=O)CO)CC3)n2C)c(=O)n1-c1cccc(F)c1 [Example 17, 6-ethyl-5-(3-fluorophenyl)-N-[1-(hydroxyacetyl)piperidin-4-yl]-1-methyl-3-(1-methylethoxy)-4-oxo-4,5-dihydro-1H-pyrrolo[3,2-c]pyridine-2-carboxamide] | 95
CCc1cc2c(c(OCC(F)(F)F)c(C(=O)NC3CCN(C(=O)CO)CC3)n2C)c(=O)n1-c1ccc(F)cc1 [Example 20, 6-ethyl-5-(4-fluorophenyl)-N-[1-(hydroxyacetyl)piperidin-4-yl]-1-methyl-4-oxo-3-(2,2,2-trifluoroethoxy)-4,5-dihydro-1H-pyrrolo[3,2-c]pyridine-2-carboxamide] | 96
CCOc1c(C(=O)NC2CCN(C(=O)CO)CC2)n(C)c2cc(CC)n(-c3ccc(F)cc3)c(=O)c12 [Example 21, 3-ethoxy-6-ethyl-5-(4-fluorophenyl)-N-[1-(hydroxyacetyl)piperidin-4-yl]-1-methyl-4-oxo-4,5-dihydro-1H-pyrrolo[3,2-c]pyridine-2-carboxamide] | 96
CCc1cc2c(c(OC(C)C)c(C(=O)NC3CCN(C(=O)CO)CC3)n2C)c(=O)n1-c1ccc(F)cc1 [Example 22, 6-ethyl-5-(4-fluorophenyl)-N-[1-(hydroxyacetyl)piperidin-4-yl]-1-methyl-3-(1-methylethoxy)-4-oxo-4,5-dihydro-1H-pyrrolo[3,2-c]pyridine-2-carboxamide] | 97
